From US20240180872A1, “METHODS AND COMPOUNDS OF CANNABIDIOL, MELATONIN AND AKBA FOR TREATING PANCREATIC CANCER” (priority 2021, published 2024)

Experiments:
PANC-1 cell line = assay: Cytotoxicity assay (MTT, 72 hours, daily administration) in PANC-1; conditions: Homo sapiens, PANC-1, read-out: % VIABILITY ± S.D.
Description: Human pancreatic ductal adenocarcinoma (PANC-1 and MIAPaCa-2) cell lines were purchased by Sigma Aldrich (Milan, Italy) and cultured in DMEM high glucose medium (EuroClone, Milan, Italy) supplemented with 10% of fetal bovine serum (FBS), 2 mM L-glutamine, 100 IU/mL penicillin, 100 mg streptomycin and 1 mM sodium pyruvate. Cell lines were maintained at 37° C. with 5% CO2 and 95% of humidity.
3×10^4 cells/mL were seeded in 96-well plates in a final volume of 100 L/well. After one day of incubation, compounds or vehicles, alone or in combination, were added and six replicates were used for each treatment and all experiments were repeated three times. In all the experiments, the treatment was daily added, after washing with fresh medium. After 72 hours cell viability was investigated by adding 0.8 mg/mL of 3-[4,5-dimethylthiazol-2-yl]-2,5 diphenyl tetrazolium bromide (MTT) (Sigma Aldrich) to the media. After 3 h the supernatant was removed, and the pellet of salt crystals was solubilized with 100 μL/well of DMSO. The absorbance of the sample against a background control was measured at 570 nm using an ELISA reader microliter plate (BioTek Instruments, Winooski, VT, USA).
Cytotoxicity in PDAC cell lines: The effect of CBD, MLT and AKBA in reducing cell viability was evaluated at 72 hours, post daily administration, in PDAC cell lines. Cells were treated with different doses of CBD, MLT and AKBA (up to 1 mg) and percentage of cell viability was evaluated by the MTT assay. […] The compounds were administered daily for 72 hours, as in previous experiments at the desired doses. […] MTT assay was used to analyse the cell cytotoxicity.

[1] = tested on: U251 Glioblastoma cell line; assay: Cytotoxicity assay (MTT, 72 hours, daily administration) in U251; format: cell-based; conditions: Homo sapiens, U-251, read-out: % VIABILITY ± S.D.
From the text: (§1) The combinations were effective in other human tumor cell lines and we tested in glioblastoma cell line and endometrial cancer cell Additional tests include data obtained from two independent experiments, six wells for dose.

[2] = tested on: pancreatic adenocarcinoma associated genes; assay: TaqMan Array gene expression in PANC-1, normalized for GAPDH; conditions: 24 hs, CBD 3.8, MLT 200, AKBA 7.5 micrograms/ml
Description: Total RNA from untreated or CBD, MLT, AKBA alone and in combination treated cell lines was extracted using Rneasy Mini kit (Qiagen, Milan, Italy). One microgram of total RNA from each sample was subjected to reverse transcription in a total volume of 20 μL using the High-Capacity cDNA Archive Kit (Applied Biosystem, Foster City, […], USA) according to the instructions. cDNAs were analyzed by qRT-PCR performed using an IQ5 Multicolor Real time PCR Detection system. Quantitative real-time gene expression was performed with the TaqMan® Array Human Pancreatic Adenocarcinoma 96-well Plate, containing 92 assays to pancreatic adenocarcinoma associated genes and 4 assays to candidate endogenous control genes, was purchased (Thermo Fisher, Grand Island, NY, USA) and used to evaluate the treatments in modulating PDAC-related genes (Table 1). Measurement of different housekeeping genes (GAPDH; HPRT1; GUSB) on the samples was used to normalize mRNA content. The gene expression levels of treated cell lines were expressed as relative fold compared with untreated or vehicle-treated cells.
To elucidate the molecular events induced by CBD, MLT and AKBA alone and in combination, 92 genes involved in PDAC progression and aggressiveness were evaluated by Taqman Array. Both cell lines were treated with CBD, MLT and AKBA alone and in combination, and the molecular pathways of PDAC associated gene were evaluated.
Target mRNA levels were normalized for GAPDH expression.

[3] = tested on: PCEM004a endometrial cancer cell line; assay: Cytotoxicity assay (MTT, 72 hours, daily administration) in PCEM004a; format: cell-based; conditions: Homo sapiens, read-out: % VIABILITY ± S.D.
From the text: as §1

`COc1ccc2[nH]cc(CCNC(C)=O)c2c1` [MLT, N-[2-(5-methoxy-1H-indol-3-yl)ethyl]acetamide] was tested, and the viability at 100 µg/mL (PANC-1 cell line) was 100 ± 5.7%, the viability at 200 µg/mL (PANC-1 cell line) was 97.4 ± 6.1% and the viability at 400 µg/mL (PANC-1 cell line) was 83.9 ± 6.1%. It also gave a viability at 800 µg/mL (PANC-1 cell line) of 19.2 ± 1.1%, a viability at 100 µg/mL [1] of 100 ± 2.3% and a viability at 200 µg/mL [1] of 65.4 ± 4.4%. For the same compound, the viability at 400 µg/mL [1] was 58.2 ± 4.1%, the viability at 800 µg/mL [1] was 17 ± 1.1% and the “AKT3 mRNA relative expression” value ([2]; VEI 0.00) was 0.00. The “ARHGEF7 mRNA relative expression” value ([2]; VEI 0.00) was 0.017, the “BCL2 mRNA relative expression” value ([2]; VEI 0.00) was 0.00 and the “CCND2 mRNA relative expression” value ([2]; VEI 0.00) was 0.00. The “CDKN2B mRNA relative expression” value ([2]; VEI 0.00) was 1.65, the “CYP2E1 mRNA relative expression” value ([2]; VEI 0.00) was 0.00 and the “EGF mRNA relative expression” value ([2]; VEI 0.00) was 0.00. For the same compound, the “IGF1 mRNA relative expression” value ([2]; VEI 0.00) was 0.00, the “IL6 mRNA relative expression” value ([2]; VEI 0.00) was 0.00 and the “KDR mRNA relative expression” value ([2]; VEI 0.00) was 0.00. For the same compound, the “KIT mRNA relative expression” value ([2]; VEI 0.00) was 0.01, the “MAPK3 mRNA relative expression” value ([2]; VEI 0.00) was 0.00 and the “MMP1 mRNA relative expression” value ([2]; VEI 0.00) was 0.07. For the same compound, the “MMP3 mRNA relative expression” value ([2]; VEI 0.00) was 0.00, the “TGFA mRNA relative expression” value ([2]; VEI 0.00) was 0.22 and the “TGFB2 mRNA relative expression” value ([2]; VEI 0.00) was 0.00. The “JAK2 mRNA relative expression” value ([2]; VEI 0.01) was 0.01, the “JAK3 mRNA relative expression” value ([2]; VEI 0.01) was 0.00 and the “MMP7 mRNA relative expression” value ([2]; VEI 0.01) was 0.01. The “MMP9 mRNA relative expression” value ([2]; VEI 0.01) was 0.04, the “PK3CA mRNA relative expression” value ([2]; VEI 0.01) was 0.00 and the “RAC2 mRNA relative expression” value ([2]; VEI 0.01) was 0.01. For the same compound, the “RB1 mRNA relative expression” value ([2]; VEI 0.01) was 0.03, the “TGFB3 mRNA relative expression” value ([2]; VEI 0.01) was 0.00 and the “TGFBR1 mRNA relative expression” value ([2]; VEI 0.02) was 0.00. For the same compound, the “BRCA2 mRNA relative expression” value ([2]; VEI 0.03) was 0.34, the “CDKN2D mRNA relative expression” value ([2]; VEI 0.03) was 0.04 and the “MDM2 mRNA relative expression” value ([2]; VEI 0.03) was 0.00. For the same compound, the “RHOB mRNA relative expression” value ([2]; VEI 0.03) was 0.03, the “CDKN2C mRNA relative expression” value ([2]; VEI 0.04) was 0.14 and the “PK3R1 mRNA relative expression” value ([2]; VEI 0.04) was 0.02. The “PTGS2 mRNA relative expression” value ([2]; VEI 0.04) was 0.02, the “STATSB mRNA relative expression” value ([2]; VEI 0.04) was 0.45 and the “MAPK1 mRNA relative expression” value ([2]; VEI 0.05) was 0.02. The “SMAD2 mRNA relative expression” value ([2]; VEI 0.05) was 0.19, the “CCND1 mRNA relative expression” value ([2]; VEI 0.06) was 0.10 and the “MAP2K2 mRNA relative expression” value ([2]; VEI 0.06) was 0.08. The “PK3CD mRNA relative expression” value ([2]; VEI 0.06) was 0.06, the “TGFBR2 mRNA relative expression” value ([2]; VEI 0.06) was 0.00 and the “VEGFA mRNA relative expression” value ([2]; VEI 0.06) was 0.03. The “VEGFB mRNA relative expression” value ([2]; VEI 0.06) was 0.05, the “CCNA2 mRNA relative expression” value ([2]; VEI 0.07) was 0.07 and the “CCNE2 mRNA relative expression” value ([2]; VEI 0.07) was 0.07. The “EZF3 mRNA relative expression” value ([2]; VEI 0.07) was 0.08, the “SMAD4 mRNA relative expression” value ([2]; VEI 0.07) was 0.08 and the “SOS1 mRNA relative expression” value ([2]; VEI 0.07) was 0.06. The “TGFB1 mRNA relative expression” value ([2]; VEI 0.07) was 0.05, the “MAP2K1 mRNA relative expression” value ([2]; VEI 0.08) was 0.03 and the “MMP2 mRNA relative expression” value ([2]; VEI 0.08) was 0.00. The “VEGFC mRNA relative expression” value ([2]; VEI 0.08) was 0.00, the “CCNE1 mRNA relative expression” value ([2]; VEI 0.09) was 0.11 and the “CDK2 mRNA relative expression” value ([2]; VEI 0.09) was 0.07. For the same compound, the “KRAS mRNA relative expression” value ([2]; VEI 0.09) was 0.01, the “RAC1 mRNA relative expression” value ([2]; VEI 0.09) was 0.00 and the “REL mRNA relative expression” value ([2]; VEI 0.09) was 0.08. The “STAT2 mRNA relative expression” value ([2]; VEI 0.09) was 0.00, the “CDKN1B mRNA relative expression” value ([2]; VEI 0.10) was 0.09 and the “CDKN2A mRNA relative expression” value ([2]; VEI 0.10) was 0.16. The “RELA mRNA relative expression” value ([2]; VEI 0.10) was 0.00, the “AKT1 mRNA relative expression” value ([2]; VEI 0.11) was 0.10 and the “PK3CB mRNA relative expression” value ([2]; VEI 0.11) was 0.13. For the same compound, the “FIGF mRNA relative expression” value ([2]; VEI 0.14) was 0.11, the “TP53 mRNA relative expression” value ([2]; VEI 0.14) was 0.29 and the “EZF4 mRNA relative expression” value ([2]; VEI 0.16) was 0.16. The “NFKB2 mRNA relative expression” value ([2]; VEI 0.16) was 0.02, the “EZF1 mRNA relative expression” value ([2]; VEI 0.17) was 0.14 and the “SMAD3 mRNA relative expression” value ([2]; VEI 0.17) was 0.22. The “STAT1 mRNA relative expression” value ([2]; VEI 0.18) was 0.12, the “BRAF mRNA relative expression” value ([2]; VEI 0.22) was 0.13 and the “BIRC5 mRNA relative expression” value ([2]; VEI 0.23) was 0.13. For the same compound, the “JAK1 mRNA relative expression” value ([2]; VEI 0.23) was 0.02, the “CDK4 mRNA relative expression” value ([2]; VEI 0.24) was 0.17 and the “EGFR mRNA relative expression” value ([2]; VEI 0.24) was 0.16. The “RAF1 mRNA relative expression” value ([2]; VEI 0.25) was 0.06, the “CCNB1 mRNA relative expression” value ([2]; VEI 0.27) was 0.33 and the “ERBB2 mRNA relative expression” value ([2]; VEI 0.27) was 0.04. For the same compound, the “SRC mRNA relative expression” value ([2]; VEI 0.27) was 0.03, the “GRB2 mRNA relative expression” value ([2]; VEI 0.31) was 0.23 and the “BCL2L1 mRNA relative expression” value ([2]; VEI 0.35) was 0.21. The “HSP90AA1 mRNA relative expression” value ([2]; VEI 0.35) was 0.00, the “NFKB1 mRNA relative expression” value ([2]; VEI 0.35) was 0.09 and the “RHOA mRNA relative expression” value ([2]; VEI 0.37) was 0.07. For the same compound, the “ELK1 mRNA relative expression” value ([2]; VEI 0.41) was 0.09, the “RELB mRNA relative expression” value ([2]; VEI 0.42) was 0.06 and the “CDC42 mRNA relative expression” value ([2]; VEI 0.45) was 0.00. The “CDKN1A mRNA relative expression” value ([2]; VEI 0.49) was 0.07, the “AKT2 mRNA relative expression” value ([2]; VEI 0.50) was 0.46 and the “HBEGF mRNA relative expression” value ([2]; VEI 0.53) was 0.39. For the same compound, the “NOTCH1 mRNA relative expression” value ([2]; VEI 1.03) was 0.32, the “STAT6 mRNA relative expression” value ([2]; VEI 1.38) was 0.01 and the “STAT3 mRNA relative expression” value ([2]; VEI 4.45) was 0.07. For the same compound, the viability at 100 µg/mL [3] was 96.5 ± 8.2%, the viability at 200 µg/mL [3] was 90.4 ± 6.2% and the viability at 400 µg/mL [3] was 80.1 ± 5.3%. For the same compound, the viability at 800 µg/mL [3] was 31.3 ± 2.8%.
